# Laboratory results reported in patent US9862717B2 (Merck Patent GmbH, priority 2014, dated 2018).
# Read-outs that look alike come from different tables or passages of the source.
# Molecular target: T1, CDK8/CycC (Homo sapiens, UniProt P49336)
# T1 construct: purchased Invitrogen PV4402
# Test: FRET based Lanthascreen binding competition assay for CDK8 inhibitory activity
# Details: CDK8 co-expressed with CycC, class symbols
# Description: Biochemical Assay for CDK8 Inhibitory Activity FRET based Lanthascreen binding competition assay: A dye-labeled ATP competitive probe served as a FRET acceptor upon binding to CDK8 labeled with a strepavidin -Eu-chelate (via a biotinylated anti His antibody). The result was a fluorescence signal at 647 nm. In case this probe was competed by an inhibitor, such a signal cannot be generated any more. The CDK8 used for this assay was a protein co-expressed with CycC. The assay procedure for an assay in a 1536 well plate was performed according to the following: 2 μL CDK8/biotin-anti-His Ab/SA-Eu mix in Assay buffer were pipetted into the wells of a micro plate. 1 μL compound in 20 mM Hepes buffer/5% DMSO was added. The plate was shaken for 30 sec and incubated for 20 min at RT. 2 μL Alexa647-probe in assay buffer were added. The plate was shaken for 30 sec again and incubated for 60 min at RT in the dark. Then the plate was read out on a Perkin Elmer Envision (mode LANCE/TRF, excitation 340 nm emission 650 nm). […] The readouts were fitted to IC50 curves using Genedata Condoseo.
# T1 sequence (P49336 whole entry): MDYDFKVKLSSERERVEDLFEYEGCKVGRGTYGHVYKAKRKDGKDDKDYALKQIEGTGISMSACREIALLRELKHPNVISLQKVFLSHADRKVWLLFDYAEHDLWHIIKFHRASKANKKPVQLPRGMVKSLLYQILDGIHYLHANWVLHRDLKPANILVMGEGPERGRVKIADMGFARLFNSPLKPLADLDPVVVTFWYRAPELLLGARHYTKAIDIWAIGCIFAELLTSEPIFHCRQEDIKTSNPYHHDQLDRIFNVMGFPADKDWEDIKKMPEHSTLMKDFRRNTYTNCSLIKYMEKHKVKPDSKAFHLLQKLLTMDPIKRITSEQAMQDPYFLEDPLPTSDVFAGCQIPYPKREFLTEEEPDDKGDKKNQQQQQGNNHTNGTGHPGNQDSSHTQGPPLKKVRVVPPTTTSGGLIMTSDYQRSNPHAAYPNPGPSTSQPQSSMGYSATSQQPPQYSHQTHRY
# T1 sequence (P24863 whole entry partner): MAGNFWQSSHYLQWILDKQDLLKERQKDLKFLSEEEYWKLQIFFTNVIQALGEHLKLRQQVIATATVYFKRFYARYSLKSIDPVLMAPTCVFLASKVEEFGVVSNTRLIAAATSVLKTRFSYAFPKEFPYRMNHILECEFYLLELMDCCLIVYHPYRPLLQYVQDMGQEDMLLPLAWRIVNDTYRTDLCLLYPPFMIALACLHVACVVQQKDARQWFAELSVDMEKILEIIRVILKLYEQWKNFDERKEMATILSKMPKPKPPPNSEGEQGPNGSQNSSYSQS
SMILES,IC50 (read-out: IC50) [µM],IC50 (IC50 [μM]) [µM]
"Cc1n[nH]c2ncc(C(=O)N3CCCCC3Cc3ccccc3)cc12 (centres unmarked) [compound 19, (2-Benzyl-piperidin-1-yl)-(3-methyl-1H-pyrazolo[3,4-b]pyridin-5-yl)-methanone]",0.1 to 1,
"Cc1n[nH]c2ncc(C(=O)N3CCCC3c3ccccc3)cc12 (centres unmarked) [compound 20, (3-Methyl-1H-pyrazolo[3,4-b]pyridin-5-yl)-(2-phenyl-pyrrolidin-1-yl)-methanone]",< 0.01,
"Cc1n[nH]c2ncc(C(=O)N3CCCC3c3cccc(Cl)c3)cc12 (centres unmarked) [compound 21, [2-(3-Chloro-phenyl)-pyrrolidin-1-yl]-(3-methyl-1H-pyrazolo[3,4-b]pyridin-5-yl)-methanone]",0.01 to 0.1,
"Cc1n[nH]c2ncc(C(=O)N3CCC(c4ccccc4)C3)cc12 (centres unmarked) [compound 22, (3-Methyl-1H-pyrazolo[3,4-b]pyridin-5-yl)-(3-phenyl-pyrrolidin-1-yl)-methanone]",0.01 to 0.1,
"Cc1n[nH]c2ncc(C(=O)N3CCCC3c3ccccc3Cl)cc12 (centres unmarked) [compound 23, [2-(2-Chloro-phenyl)-pyrrolidin-1-yl]-(3-methyl-1H-pyrazolo[3,4-b]pyridin-5-yl)-methanone]",0.01 to 0.1,
"Cc1n[nH]c2ncc(C(=O)N3CCCC[C@H]3Cc3ccccc3)cc12 [compound 24, ((S)-2-Benzyl-piperidin-1-yl)-(3-methyl-1H-pyrazolo[3,4-b]pyridin-5-yl)-methanone]",0.1 to 1,
"Cc1n[nH]c2ncc(C(=O)N3CCCC3c3ccc(F)cc3)cc12 (centres unmarked) [compound 26, [2-(4-Fluoro-phenyl)-pyrrolidin-1-yl]-(3-methyl-1H-pyrazolo[3,4-b]pyridin-5-yl)-methanone]",< 0.01,
"Cc1n[nH]c2ncc(C(=O)N3CCCC[C@H]3c3ccccc3)cc12 [compound 28, (3-Methyl-1H-pyrazolo[3,4-b]pyridin-5-yl)-((S)-2-phenyl-piperidin-1-yl)-methanone]",0.01 to 0.1,
"Cc1n[nH]c2ncc(C(=O)N3CCCC3c3ccccn3)cc12 (centres unmarked) [compound 30, (3-Methyl-1H-pyrazolo[3,4-b]pyridin-5-yl)-(2-pyridin-2-yl-pyrrolidin-1-yl)-methanone]",0.1 to 1,
CC(C)Cc1n[nH]c2ccc(C(=O)N3CCC[C@H]3c3ccc(Cl)cc3)cc12 [compound 31],< 0.01,
"Cc1n[nH]c2ncc(C(=O)N3CCCC3c3ccncc3)cc12 (centres unmarked) [compound 32, (3-Methyl-1H-pyrazolo[3,4-b]pyridin-5-yl)-(2-pyridin-4-yl-pyrrolidin-1-yl)-methanone]",0.1 to 1,
"CSc1ccccc1[C@@H]1CCCN1C(=O)c1cnc2[nH]nc(C)c2c1 [compound 33, (3-Methyl-1H-pyrazolo[3,4-b]pyridin-5-yl)-[(S)-2-(2-methylsulfanyl-phenyl)-pyrrolidin-1-yl]-methanone]",0.1 to 1,
"CSc1ccccc1[C@H]1CCCN1C(=O)c1cnc2[nH]nc(C)c2c1 [compound 34, (3-Methyl-1H-pyrazolo[3,4-b]pyridin-5-yl)-[(R)-2-(2-methylsulfanyl-phenyl)-pyrrolidin-1-yl]-methanone]",0.1 to 1,
"Cc1n[nH]c2ncc(C(=O)N3CCC[C@H]3c3ccccc3Cl)cc12 [compound 36, [(S)-2-(2-Chloro-phenyl)-pyrrolidin-1-yl]-(3-methyl-1H-pyrazolo[3,4-b]pyridin-5-yl)-methanone]",0.01 to 0.1,
"Cc1n[nH]c2ncc(C(=O)N3CCC[C@@H]3c3ccccc3Cl)cc12 [compound 37, [(R)-2-(2-Chloro-phenyl)-pyrrolidin-1-yl]-(3-methyl-1H-pyrazolo[3,4-b]pyridin-5-yl)-methanone]",0.1 to 1,
"Cc1n[nH]c2ncc(C(=O)N3CCC[C@@H]3c3ccccc3)cc12 [compound 38, (3-Methyl-1H-pyrazolo[3,4-b]pyridin-5-yl)-((R)-2-phenyl-pyrrolidin-1-yl)-methanone]",0.1 to 1,
"Cc1n[nH]c2ncc(C(=O)N3CCC[C@H]3c3ccccc3)cc12 [compound 39, (3-Methyl-1H-pyrazolo[3,4-b]pyridin-5-yl)-((S)-2-phenyl-pyrrolidin-1-yl)-methanone]",< 0.01,

# The remaining lines, values ahead:
IC50 (read-out: IC50) [µM],IC50 (IC50 [μM]) [µM],SMILES
0.1 to 1,,"Cc1n[nH]c2ncc(C(=O)N3CC[C@H](c4ccccc4)C3)cc12 [compound 40, (3-Methyl-1H-pyrazolo[3,4-b]pyridin-5-yl)-((R)-3-phenyl-pyrrolidin-1-yl)-methanone]"
0.01 to 0.1,,"Cc1n[nH]c2ncc(C(=O)N3CC[C@@H](c4ccccc4)C3)cc12 [compound 41, (3-Methyl-1H-pyrazolo[3,4-b]pyridin-5-yl)-((S)-3-phenyl-pyrrolidin-1-yl)-methanone]"
< 0.01,,"Cc1n[nH]c2ncc(C(=O)N3CCC[C@H]3c3ccc(F)cc3)cc12 [compound 43, [(S)-2-(4-Fluoro-phenyl)-pyrrolidin-1-yl]-(3-methyl-1H-pyrazolo[3,4-b]pyridin-5-yl)-methanone]"
0.1 to 1,,"Cc1n[nH]c2ncc(C(=O)N3CCC[C@@H]3c3ccc(F)cc3)cc12 [compound 44, [(R)-2-(4-Fluoro-phenyl)-pyrrolidin-1-yl]-(3-methyl-1H-pyrazolo[3,4-b]pyridin-5-yl)-methanone]"
0.1 to 1,,"Cc1n[nH]c2ncc(C(=O)N3CCC[C@@H]3c3cccc(Cl)c3)cc12 [compound 45, [(r)-2-(3-Chloro-phenyl)-pyrrolidin-1-yl]-(3-methyl-1H-pyrazolo[3,4-b]pyridin-5-yl)-methanone]"
0.01 to 0.1,,"Cc1n[nH]c2ncc(C(=O)N3CCC[C@H]3c3cccc(Cl)c3)cc12 [compound 46, [(S)-2-(3-Chloro-phenyl)-pyrrolidin-1-yl]-(3-methyl-1H-pyrazolo[3,4-b]pyridin-5-yl)-methanone]"
,0.1 to 1,"Cc1n[nH]c2ccc(C(=O)N3CCC[C@@H]3c3ccc(Cl)cc3)cc12 [compound 47, [(R)-2-(4-Chloro-phenyl)-pyrrolidin-1-yl]-(3-methyl-1H-indazol-5-yl)-methanone]"
,< 0.01,"Cc1n[nH]c2ccc(C(=O)N3CCC[C@H]3c3ccc(Cl)cc3)cc12 [compound 48, [(S)-2-(4-Chloro-phenyl)-pyrrolidin-1-yl]-(3-methyl-1H-indazol-5-yl)-methanone]"
< 0.01,,"Cc1n[nH]c2ccc(C(=O)N3CCC[C@H]3c3ccc(Br)cc3)cc12 [compound 49, [(S)-2-(4-Bromo-phenyl)-pyrrolidin-1-yl]-(3-methyl-1H-indazol-5-yl)-methanone]"
0.1 to 1,,"Cc1n[nH]c2ccc(C(=O)N3CCC[C@@H]3c3ccc(Br)cc3)cc12 [compound 50, [(R)-2-(4-Bromo-phenyl)-pyrrolidin-1-yl]-(3-methyl-1H-indazol-5-yl)-methanone]"
,< 0.01,"Cc1n[nH]c2ccc(C(=O)N3CCC[C@H]3c3ccc(Cl)cc3)nc12 [compound 52, [(S)-2-(4-Chloro-phenyl)-pyrrolidin-1-yl]-(3-methyl-1H-pyrazolo[4,3-b]pyridin-5-yl)-methanone]"
0.1 to 1,,"Cc1n[nH]c2ccc(C(=O)N3CCC[C@@H]3c3ccc(Br)cc3)nc12 [compound 53, [(R)-2-(4-Bromo-phenyl)-pyrrolidin-1-yl]-(3-methyl-1H-pyrazolo[4,3-b]pyridin-5-yl)-methanone]"
< 0.01,,"Cc1n[nH]c2ccc(C(=O)N3CCC[C@H]3c3ccc(Br)cc3)nc12 [compound 54, [(S)-2-(4-Bromo-phenyl)-pyrrolidin-1-yl]-(3-methyl-1H-pyrazolo[4,3-b]pyridin-5-yl)-methanone]"
0.01 to 0.1,,"Cc1n[nH]c2ncc(C(=O)N3CCC3c3ccc(Cl)cc3)cc12 (centres unmarked) [compound 55, [2-(4-Chloro-phenyl)-azetidin-1-yl]-(3-methyl-1H-pyrazolo[3,4-b]pyridin-5-yl)-methanone]"
0.01 to 0.1,,"Cc1n[nH]c2ncc(C(=O)N3CC[C@H]3c3ccc(F)cc3)cc12 [compound 56, [(S)-2-(4-Fluoro-phenyl)-azetidin-1-yl]-(3-methyl-1H-pyrazolo[3,4-b]pyridin-5-yl)-methanone]"
0.1 to 1,,"Cc1n[nH]c2ncc(C(=O)N3CCCCCC3c3ccc(Cl)cc3)cc12 (centres unmarked) [compound 57, [2-(4-Chloro-phenyl)-azepan-1-yl]-(3-methyl-1H-pyrazolo[3,4-b]pyridin-5-yl)-methanone]"
0.01 to 0.1,,"Cc1n[nH]c2ncc(C(=O)N3CCCCCC3c3cccc(F)c3)cc12 (centres unmarked) [compound 58, [2-(3-Fluoro-phenyl)-azepan-1-yl]-(3-methyl-1H-pyrazolo[3,4-b]pyridin-5-yl)-methanone]"
0.01 to 0.1,,"Cc1n[nH]c2ncc(C(=O)N3CCCCC(c4ccc(Cl)cc4)C3)cc12 (centres unmarked) [compound 59, [3-(4-Chloro-phenyl)-azepan-1-yl]-(3-methyl-1H-pyrazolo[3,4-b]pyridin-5-yl)-methanone]"
< 0.01,,"Cc1ccc(C2CCCN2C(=O)c2cnc3[nH]nc(C)c3c2)cc1 (centres unmarked) [compound 62, (3-Methyl-1H-pyrazolo[3,4-b]pyridin-5-yl)-(2-p-tolyl-pyrrolidin-1-yl)-methanone]"
< 0.01,,"Cc1n[nH]c2ncc(C(=O)N3CCCC3c3ccc(C(F)(F)F)cc3)cc12 (centres unmarked) [compound 63, (3-Methyl-1H-pyrazolo[3,4-b]pyridin-5-yl)-[2-(4-trifluoromethyl-phenyl)-pyrrolidin-1-yl]-methanone]"
0.1 to 1,,"Cc1n[nH]c2ncc(C(=O)N3CCCC3c3ccccc3OCC(F)(F)F)cc12 (centres unmarked) [compound 65, (3-Methyl-1H-pyrazolo[3,4-b]pyridin-5-yl)-{2-[2-(2,2,2-trifluoro-ethoxy)-phenyl]-pyrrolidin-1-yl}-methanone]"
